Test results: patent US6706664B1, “Benzoxazole compounds, process for the preparation thereof and herbicides” (UBE Industries, Ltd., priority 1999, dated 2004)

How the values were obtained:
Design in all cases: key: 0: normal development; 1: Less damaged; 2: Slightly damaged; 3: Moderately damaged; 4: Severely damaged; 5: All killed
[1] = system: flat sedge; experiment: Herbicidal test for paddy field; type: in vivo, Cyperus serotinus; conditions: paddy field pot, 500 g/ha dropwise at 1.5 leaf stage of barnyardgrass, 3 weeks, rank vs non-treated
Method: Wagner pots, each having an area of 1/5000 are, were packed with Ube soil (alluvial soil) and planted with seeds or tubers of young rice plant, barnyardgrass, bulrush, flat sedge and monochoria. Then, the pots were filled with water to a depth of 3 cm.
Each wettable powder of the desired compounds (I) shown in Table 1 prepared in accordance with Example 2 was diluted with water containing a surfactant (0.05%) and subjected to dropwise addition treatment by using pipet so that an effective concentration of the compound (I) in each herbicide became 500 g/ha at 1.5 leaf stage of barnyardgrass.
These plants were controlled in a glass house at an average temperature of 25° C. for 3 weeks, and then herbicidal effects thereof were investigated.
The herbicidal effects are evaluated according to the following 6 ranks as compared with non-treated district.
(0: normal development, 1: Less damaged, 2: Slightly damaged, 3: Moderately damaged, 4: Severely damaged, 5: All killed).

[2] = system: green foxtail; experiment: Soil treatment test for upland field; type: in vivo, Setaria viridis; conditions: 500 g/ha, glass house 25° C., 3 weeks
How it was run: (§1)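 Seeds planted in Wagner pots of Ube soil (alluvial) and covered. Wettable powder diluted in 0.05% surfactant water, sprayed uniformly onto soil at 500 g/ha effective rate. Grown 3 weeks, glasshouse, mean 25° C, then damage rated visually 0–5.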

[3] = system: common lambsquartes; experiment: Soil treatment test for upland field; type: in vivo, Chenopodium album; conditions: 500 g/ha, glass house 25° C., 3 weeks
How it was run: as §1

[4] = system: corn; experiment: Foliar spread test for upland field; type: in vivo; conditions: foliar spray 500 ppm, 3 weeks, rank vs non-treated
How it was run: (§2)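 Seeds are planted in pots of volcanic ash soil and grown roughly 2 weeks under glass. Foliage then receives a uniform spray of compound at 500 ppm in water with 0.5% surfactant. Herbicidal damage is rated 0–5 after 3 weeks at an average 25° C.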

[5] = system: cotton; experiment: Foliar spread test for upland field; type: in vivo; conditions: foliar spray 500 ppm, 3 weeks, rank vs non-treated
How it was run: as §2

[6] = system: solgum; experiment: Foliar spread test for upland field; type: in vivo; conditions: foliar spray 500 ppm, 3 weeks, rank vs non-treated
How it was run: as §2

[7] = system: soybean; experiment: Foliar spread test for upland field; type: in vivo; conditions: foliar spray 500 ppm, 3 weeks, rank vs non-treated
How it was run: as §2

[8] = system: sugar beat; experiment: Foliar spread test for upland field; type: in vivo; conditions: foliar spray 500 ppm, 3 weeks, rank vs non-treated
How it was run: as §2

[9] = system: wheat; experiment: Foliar spread test for upland field; type: in vivo; conditions: foliar spray 500 ppm, 3 weeks, rank vs non-treated
How it was run: as §2

[10] = system: Large crabgrass; experiment: Foliar spread test for upland field; type: in vivo, Digitaria adscendens; conditions: foliar spray 500 ppm, 3 weeks, rank vs non-treated
How it was run: as §2

[11] = system: barnyardgrass; experiment: Foliar spread test for upland field; type: in vivo, Echinochloa crusgalli; conditions: foliar spray 500 ppm, 3 weeks, rank vs non-treated
How it was run: as §2

[12] = system: green foxtail; experiment: Foliar spread test for upland field; type: in vivo, Setaria viridis; conditions: foliar spray 500 ppm, 3 weeks, rank vs non-treated
How it was run: as §2

[13] = system: velvetleaf; experiment: Foliar spread test for upland field; type: in vivo, Abutilon theophrasti; conditions: foliar spray 500 ppm, 3 weeks, rank vs non-treated
How it was run: as §2

[14] = system: bulrush; experiment: Herbicidal test for paddy field; type: in vivo, Scrips juncoides; conditions: paddy field pot, 500 g/ha dropwise at 1.5 leaf stage of barnyardgrass, 3 weeks, rank vs non-treated
How it was run: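 Post-flooding water application of 500 g/ha, given at 1.5-leaf barnyardgrass, to plants in Ube alluvial soil held under 3 cm of water. Ratings of 0 to 5 relative to untreated controls were made after three weeks in a glasshouse.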

[15] = system: velvetleaf; experiment: Soil treatment test for upland field; type: in vivo, Abutilon theophrasti; conditions: 500 g/ha, glass house 25° C., 3 weeks
How it was run: as §1

Structure (SMILES)	Effect Flat sedge [1]	Effects Green foxtail [2]	Effects Common lambsquarters [3]	Effects Corn [4]	Effects Cotton [5]	Effects Solgum [6]	Effects Soybean [7]	Effects Sugar beat [8]	Effects Wheat [9]	Effects Large crabgrass [10]	Effects Barnyardgrass [11]	Effects Green foxtail [12]	Effects Velvetleaf [13]	Effect Bulrush [14]	Effects Velvetleaf [15]
CCC(Oc1ccc(F)c(C(F)(F)F)c1)c1nc2cc(F)ccc2o1 (stereo not drawn) [Compound 119, 1-(5-fluorobenzoxazol-2-yl)-1-(4-fluoro-3-(trifluoromethyl)phenoxy)propane]	2	5	1	2	1	1	2	3	1	1	1	1	2		
CCC(Oc1cccc(C(F)(F)F)c1)c1nc2cc(F)ccc2o1 (stereo not drawn) [Compound 120]	2	5	4	3	2	2	5	5	2	1	1	3		3	3
CCC(Oc1ccc(F)c(C(F)(F)F)c1)c1nc2cc(Br)ccc2o1 (stereo not drawn) [Compound 165]	3	5	3	2	3	2	5		2	3	2	4	3		1
CCC(Oc1cccc(C(F)(F)F)c1)c1nc2cc(Br)ccc2o1 (stereo not drawn) [Compound 166]	4	5	2	3	2	1	4	4	1	3	1	3	2		
CCC(Oc1ccc(F)c(C(F)(F)F)c1)c1nc2cc([N+](=O)[O-])ccc2o1 (stereo not drawn) [Compound 177]	3	5	4	2	3	2	5		2	2	2	5	4	5	5
CCC(Oc1cccc(C(F)(F)F)c1)c1nc2cc(C#N)ccc2o1 (stereo not drawn) [Compound 190]	3	5	4	2	3	3	5	3	2	3	3	5	4		3
